{"source": "paper PMC9745799", "about": "“Polymyxin Stereochemistry and Its Role in Antibacterial Activity and Outer Membrane Disruption” (ACS Infectious Diseases, 2022)", "key": {"A. baumannii ATCC 19606": {"tested_on": "A. baumannii ATCC 19606", "assay_type": "cell-based", "settings": "A. baumannii ATCC 19606", "procedure": "(§1) MICs of compounds were determined following CLSI guidelines using the microbroth dilution method in polypropylene plates. Selected Gram-negative bacterial strains (see Table S2 for strain sources) were taken from glycerol stocks and grown overnight on blood agar. Individual colonies were selected and grown in Tryptic Soy Broth (TSB) to an OD600 of 0.5. Compounds were diluted in Mueller Hinton Broth (MHB) supplemented with Mg^2+ and Ca^2+ at final concentrations of 12 and 20 mg/L, respectively (CAMHB). 50 μL was used for each well, and compounds were assessed in triplicates. Bacterial culture was diluted in CAMHB to 10^6 CFU/mL, yielding 5 × 10^5 CFU/mL upon addition of 50 μL of culture to 50 μL of compound solution. Positive and negative (sterility) controls were present on each plate. Plates were sealed with a semipermeable membrane and incubated for 22 h (A. baumannii) or 18 h (other strains) under shaking at 37 °C."}, "E. coli ATCC 25922": {"tested_on": "E. coli ATCC 25922", "assay_type": "cell-based", "settings": "E. coli ATCC 25922", "procedure": "as §1"}, "E. coli BW25113": {"tested_on": "E. coli BW25113", "assay_type": "cell-based", "settings": "E. coli BW25113; CLSI microbroth dilution, CAMHB, 18 h, 37 °C, triplicate", "procedure": "as §1"}, "E. coli JW3594 (ΔwaaD)": {"tested_on": "E. coli JW3594 (ΔwaaD)", "assay_type": "cell-based", "settings": "truncated LPS, CLSI microbroth dilution, CAMHB, 18 h, 37 °C, triplicate", "procedure": "as §1"}, "E. coli JW3596 (ΔwaaC)": {"tested_on": "E. coli JW3596 (ΔwaaC)", "assay_type": "cell-based", "settings": "truncated LPS, CLSI microbroth dilution, CAMHB, 18 h, 37 °C, triplicate", "procedure": "as §1"}, "E. coli mcr-1": {"tested_on": "E. coli mcr-1", "assay_type": "cell-based", "settings": "CLSI microbroth dilution, CAMHB, 18 h, 37 °C, triplicate", "procedure": "as §1"}, "K. pneumoniae ATCC 13883": {"tested_on": "K. pneumoniae ATCC 13883", "assay_type": "cell-based", "settings": "K. pneumoniae ATCC 13883", "procedure": "as §1"}, "P. aeruginosa 2018-007": {"tested_on": "P. aeruginosa 2018-007", "assay_type": "cell-based", "settings": "P. aeruginosa 2018-007; CLSI microbroth dilution, CAMHB, 18 h, 37 °C, triplicate", "procedure": "as §1"}, "P. aeruginosa ATCC 10145": {"tested_on": "P. aeruginosa ATCC 10145", "assay_type": "cell-based", "settings": "P. aeruginosa ATCC 10145", "procedure": "as §1"}, "P. aeruginosa ATCC 27853": {"tested_on": "P. aeruginosa ATCC 27853", "assay_type": "cell-based", "settings": "P. aeruginosa ATCC 27853; CLSI microbroth dilution, CAMHB, 18 h, 37 °C, triplicate", "procedure": "as §1"}, "P. aeruginosa NRZ03961": {"tested_on": "P. aeruginosa NRZ03961", "assay_type": "cell-based", "settings": "P. aeruginosa NRZ03961; CLSI microbroth dilution, CAMHB, 18 h, 37 °C, triplicate", "procedure": "as §1"}, "[1]": {"tested_on": "polymyxin-resistant (mcr-1 positive) E. coli", "test": "microbe, parasite or virus in culture", "assay_type": "cell-based", "settings": "E. coli mcr-1, checkerboard", "procedure": "(§2) Selected Gram-negative bacterial strains were taken from glycerol stocks and grown overnight on blood agar. A single colony was inoculated in TSB broth at 37 °C until an optical density of 0.5 at 600 nm (OD600) was reached. The bacterial suspension was diluted in freshly prepared CAMHB to 10^6 CFU/mL. Compounds were diluted along the plate, using 25 μL of CAMHB for each dilution. Antibiotic concentrations were prepared separately in a multiwell reservoir, including a control without antibiotic. Of each antibiotic stock, 25 μL was added to three columns to obtain triplicates for every condition. To each 50 μL containing well was then added 50 μL of the 10^6 CFU/mL bacterial suspension, and the plates were sealed with breathable seals. After incubation for 18 h at 37 °C while shaking, the seals were removed and the density of the bacterial suspensions was measured at 600 nm (OD600) using a Tecan Spark plate reader. The OD600 values were transformed to a 2D gradient with the negative control as the minimum and the positive control as the maximum. The FICI was calculated using the following equation: [drawing 1] with MSCant and MSCcomp indicating the optimal synergistic concentration of antibiotic and compound and MICant and MICcomp, the corresponding MICs of the individual compounds. An FICI ≤ 0.5 indicates synergy.[48]"}, "[2]": {"tested_on": "polymyxin-sensitive E. coli ATCC 25922", "test": "microbe, parasite or virus in culture", "assay_type": "cell-based", "settings": "E. coli ATCC 25922", "procedure": "as §2"}, "[3]": {"tested_on": "LPS from E. coli (O55:B5)", "test": "Isothermal titration calorimetry (ITC), LPS binding", "settings": "compound (1 mM) into LPS (20 µM), 20 mM HEPES pH 7, 37 °C, mean and SD of three experiments", "procedure": "Stock solutions of LPS (10 mg/mL, 0.5 mM) were prepared in 20 mM HEPES at pH 7 by suspension, sonication, and temperature cycling between 4 and 60 °C and stored overnight prior to use. LPS from E. coli (O55:B5) was used. Lipopeptide solutions (1 mM in 20 mM HEPES, pH 7) were titrated into a suspension of LPS (0.020 mM) in the same buffer. Control titrations included the titration of peptide into buffer and buffer into the LPS suspension to determine the corresponding heat of dilution. All binding experiments were performed using a MicroCal PEAQ-ITC Automated microcalorimeter (Malvern Panalytical Ltd., Malvern, UK). The samples were equilibrated to 37 °C prior to measurement. The titrations were conducted at 37 °C under constant stirring at 750 rpm. Each experiment consisted of an initial injection of 0.3 μL followed by 25 separate injections of 1.5 μL into the sample cell of 200 μL. The time between each injection was 180 s, and the measurements were performed with the reference power set at 5 μcal s^–1 and the feedback mode set at “low”. For all calculations performed, an estimated molecular weight of 20 kDa for LPS was applied. The calorimetric data thus obtained were analyzed using MicroCal PEAQ-ITC Analysis Software Version 1.20 (Malvern Panalytical Ltd., Malvern, UK), where the integrated heat signal is corrected for the heat of dilution of the titrant."}, "[4]": {"settings": "CLSI microbroth dilution, CAMHB, 18 h, 37 °C, triplicate"}}, "note": "“And” between values parts separate entries of the source, which are not always exact repeats. Identical values can stand only once. Positions of bridges follow the written chain, without caps; N, C: chain ends. Non-standard residues stand in square brackets, D forms with d. Residues, ends and D or L forms follow the SMILES beside them. *: point of attachment. dDab = NCC[C@@H](N)C(=O)O; Heptanoyl = CCCCCCC(=O)*"}
{"compound": "CCCCCCC(=O)N[C@H](CCN)C(=O)N[C@@H](C(=O)N[C@H](CCN)C(=O)N[C@@H]1CCNC(=O)[C@@H]([C@H](C)O)NC(=O)[C@@H](CCN)NC(=O)[C@@H](CCN)NC(=O)[C@@H](CC(C)C)NC(=O)[C@H](Cc2ccccc2)NC(=O)[C@@H](CCN)NC1=O)[C@H](C)O", "note": "[ent-PmxB4] (Heptanoyl-[dDab][dT][dDab][dDab][dDab]F[dL][dDab][dDab][dT]; lactam 4-C)", "values": [{"measurement": "MIC in presence of PMBN", "setting": "A. baumannii ATCC 19606; + PMBN (8 ug/mL)", "value": "> 128", "unit": "µg/mL"}, {"measurement": "MIC in presence of SPR741", "setting": "A. baumannii ATCC 19606; + SPR741 (8 ug/mL)", "value": "> 128", "unit": "µg/mL"}, {"measurement": "MIC", "setting": "A. baumannii ATCC 19606; CLSI microbroth dilution, CAMHB, 22 h, 37 °C, triplicate", "value": ">128", "unit": "µg/mL"}, {"measurement": "MIC in presence of PMBN", "setting": "E. coli ATCC 25922; + PMBN (8 ug/mL)", "value": 128, "unit": "µg/mL"}, {"measurement": "MIC in presence of SPR741", "setting": "E. coli ATCC 25922; + SPR741 (8 ug/mL)", "value": 128, "unit": "µg/mL"}, {"measurement": "MIC", "setting": "E. coli BW25113", "value": ">128", "unit": "µg/mL"}, {"measurement": "MIC", "setting": "E. coli JW3594 (ΔwaaD)", "value": 128, "unit": "µg/mL"}, {"measurement": "MIC", "setting": "E. coli JW3596 (ΔwaaC)", "value": 128, "unit": "µg/mL"}, {"measurement": "MIC", "setting": "E. coli mcr-1", "value": 128, "unit": "µg/mL"}, {"measurement": "MIC in presence of PMBN", "setting": "K. pneumoniae ATCC 13883; + PMBN (8 ug/mL)", "value": "> 128", "unit": "µg/mL"}, {"measurement": "MIC in presence of SPR741", "setting": "K. pneumoniae ATCC 13883; + SPR741 (8 ug/mL)", "value": "> 128", "unit": "µg/mL"}, {"measurement": "MIC", "setting": "K. pneumoniae ATCC 13883; [4]", "value": ">128", "unit": "µg/mL"}, {"measurement": "MIC", "setting": "P. aeruginosa 2018-007", "value": ">128", "unit": "µg/mL"}, {"measurement": "MIC in presence of PMBN", "setting": "P. aeruginosa ATCC 10145; + PMBN (8 ug/mL)", "value": "> 128", "unit": "µg/mL"}, {"measurement": "MIC in presence of SPR741", "setting": "P. aeruginosa ATCC 10145; + SPR741 (8 ug/mL)", "value": "> 128", "unit": "µg/mL"}, {"measurement": "MIC", "setting": "P. aeruginosa ATCC 10145; [4]", "value": ">128", "unit": "µg/mL"}, {"measurement": "MIC", "setting": "P. aeruginosa ATCC 27853", "value": ">128", "unit": "µg/mL"}, {"measurement": "MIC", "setting": "P. aeruginosa NRZ03961", "value": ">128", "unit": "µg/mL"}, {"measurement": "MIC alone", "setting": "[1]; substance alone", "value": 128, "unit": "µg/mL"}, {"measurement": "FICI", "setting": "[1]; combination with rifampicin, CAMHB, 18 h, 37 °C, OD600, FICI ≤ 0.5 indicates synergy", "value": "0.19 and 0.188"}, {"measurement": "MIC alone", "setting": "[2]; checkerboard, substance alone", "value": 128, "unit": "µg/mL"}, {"measurement": "MIC in combination", "setting": "[2]; compound in combination with rifampicin, optimal synergistic concentration", "value": 8, "unit": "µg/mL"}, {"measurement": "ΔΔH, maximum enthalpy observed after subtraction of dilution control", "setting": "[3]", "value": -3.485, "unit": "kcal/mol"}]}
